Read-outs that look alike come from different tables or passages of the source.
What was measured:
Type in all cases: cell-based, human
HeLa cells = experiment: MTT antiproliferative assay, HeLa cells; details: 48 h
Protocol: (§1) HeLa and SiHa cell lines were obtained from the Procell Life Science Technology Co., Ltd. (Wuhan, China); H8 cell line was obtained from the Shanghai HonSun Biological Technology Co., Ltd. (Shanghai, China); HUVEC cell line was obtained from the Saibaikang (Shanghai) Biotechnology Co., Ltd. (Shanghai, China); HeLa/DDP cell line was obtained from the Guangzhou Jenniobio Biotechnology Co., Ltd. (Guangzhou, China). HeLa, SiHa, H8, and HeLa/DDP cells were cultured in DMEM medium (HyClone). The VEGF of 50 ng/mL was used as the promoter of the VEGFR-2 receptor on HUVEC cell membrane surfaces, and their inhibitory effects on VEGFR-2 were determined. All the mediums were supplemented with 10% FBS (HyClone, GE Healthcare, Australia). Cells were maintained at subconfluency at 37 °C in humidified air containing 5% CO2. The cells were monitored daily and maintained at 80% cell density. All compounds tested were dissolved in DMSO and then diluted by the culture medium before the treatment of cultured cells. Identification reports are available for all types of cell lines involved in this study.
(§2) The cytotoxicity of the target compounds were measured in vitro using the MTT assay. Cells grown in the logarithmic phase were counted and seeded in 96-well cell culture plates (5 × 10^3 cells per well) for 24 h to allow attachment of cells to the wall of the plate. […] Next, 20 μL of 5 mg.mL^−1 MTT solution was added to each well and cultured for 4 h. The old solution was discarded, replaced with 150 μL DMSO solution per well, and shaken for 10 min. The OD value was measured under 490 nm, and the inhibition rate was calculated. The nonlinear regression fitting of the cell growth rate was carried out using SPSS 23.0 software, and the IC50 of the compound was calculated. […] There were 6 compound holes in each group, and the experimental results were presented as the average of 3 experiments. A complete medium containing only cells was used as the blank control, whereas a complete medium without cells was the negative control group. Cisplatin and sorafenib were utilized as the positive control group, and the target compound was the experimental intervention group.

SiHa cells = experiment: MTT antiproliferative assay, SiHa cells; details: 48 h, mean ± SD
Protocol: as §1, §2

H8 cells = experiment: MTT cytotoxicity assay, normal cervical epithelial H8 cells; details: 48 h, mean ± SD
Protocol: as §1, §2

HeLa/DDP cells = experiment: MTT assay, cisplatin-resistant HeLa/DDP cells; details: single agent; for IC50: cisplatin-resistant HeLa/DDP cells, 48 h, read-out: 48h IC50 HeLa/DDP; for RI (resistance index): HeLa/DDP versus HeLa
Protocol: The cytotoxicity of the target compounds were measured in vitro using the MTT assay. Cells grown in the logarithmic phase were counted and seeded in 96-well cell culture plates (5 × 10^3 cells per well) for 24 h to allow attachment of cells to the wall of the plate. […] Next, 20 μL of 5 mg.mL^−1 MTT solution was added to each well and cultured for 4 h. The old solution was discarded, replaced with 150 μL DMSO solution per well, and shaken for 10 min. The OD value was measured under 490 nm, and the inhibition rate was calculated. The nonlinear regression fitting of the cell growth rate was carried out using SPSS 23.0 software, and the IC50 of the compound was calculated. […] A complete medium containing only cells was used as the blank control, whereas a complete medium without cells was the negative control group.
To reduce the adverse reactions caused by the fixation of drug resistance reversal agents, the concentration that reduces the proliferation rate of tumor cells by less than 10% was selected.

[1] = Homo sapiens, MTT, mean ± SD, read-out: 48h IC50 HeLa
[2] = Homo sapiens, single agent, read-out: 48h IC50 HeLa (Table 4)

Row | Compound | IC50 (HeLa cells; [1]) [µM] | IC50 (SiHa cells; Homo sapiens) [µM] | IC50 (H8 cells; Homo sapiens) [µM] | also measured
1 | COc1cc(O)c(C(=O)/C=C/c2ccc(CN3CCN(C)CC3)cc2)cc1CN1CCCC1 [6m, (E)-1-(2-hydroxy-4-methoxy-5-(pyrrolidin-1-ylmethyl)phenyl)-3-(4-((4-methylpiperazin-1-yl)methyl)phenyl)prop-2-en-1-one] | 52.43 ± 0.42 | > 100 | > 100 | –
2 | COc1cc(O)c(C(=O)/C=C/c2ccc(CN3CCC(OC)CC3)cc2)cc1CN1CCCC1 [6l, (E)-1-(2-hydroxy-4-methoxy-5-(pyrrolidin-1-ylmethyl)phenyl)-3-(4-((4-methoxypiperidin-1-yl)methyl)phenyl)prop-2-en-1-one] | > 100 | > 100 | > 100 | –
3 | CC(=O)O[C@H]1C(=O)[C@@]2(C)[C@H]([C@H](OC(=O)c3ccccc3)[C@]3(O)C[C@H](OC(=O)[C@H](O)[C@@H](NC(=O)c4ccccc4)c4ccccc4)C(C)=C1C3(C)C)[C@]1(OC(C)=O)CO[C@@H]1C[C@@H]2O [Paclitaxel, reference compound] | – | – | – | IC50 (HeLa cells; [2]): 20.1 ± 1.05 µM; IC50 (HeLa/DDP cells; Homo sapiens): 125 ± 5.3 µM
4 | COc1cc(O)c(C(=O)/C=C/c2ccc(CN3CCOCC3)cc2)cc1CN1CCC(OC)CC1 [6h, (E)-1-(2-hydroxy-4-methoxy-5-((4-methoxypiperidin-1-yl)methyl)phenyl)-3-(4-(morpholinomethyl)phenyl)prop-2-en-1-one] | > 100 | > 100 | > 100 | –
5 | COc1cc(O)c(C(=O)/C=C/c2ccc(CN3CCC(O)CC3)cc2)cc1CN1CCC(O)CC1 [6a, (E)-1-(2-hydroxy-5-((4-hydroxypiperidin-1-yl)methyl)-4-methoxyphenyl)-3-(4-((4-hydroxypiperidin-1-yl)methyl)phenyl)prop-2-en-1-one] | 72.9 ± 0.12 | > 100 | > 100 | –
6 | COc1cc(O)c(C(=O)/C=C/c2ccc(CN3CCCC3)cc2)cc1CN1CCC(O)CC1 [6c, (E)-1-(2-hydroxy-5-((4-hydroxypiperidin-1-yl)methyl)-4-methoxyphenyl)-3-(4-(pyrrolidin-1-ylmethyl)phenyl)prop-2-en-1-one] | 32.17 ± 0.14 | 44.49 ± 0.38 | 34 ± 4.14 | –
7 | COc1cc(O)c(C(=O)/C=C/c2ccc(CN3CCN(C)CC3)cc2)cc1CN1CCC(O)CC1 [6d, (E)-1-(2-hydroxy-5-((4-hydroxypiperidin-1-yl)methyl)-4-methoxyphenyl)-3-(4-((4-methylpiperazin-1-yl)methyl)phenyl)prop-2-en-1-one] | > 100 | > 100 | > 100 | –
8 | COc1cc(O)c(C(=O)/C=C/c2ccc(CN3CCOCC3)cc2)cc1CN1CCCC1 [6j, (E)-1-(2-hydroxy-4-methoxy-5-(pyrrolidin-1-ylmethyl)phenyl)-3-(4-(morpholinomethyl)phenyl)prop-2-en-1-one] | 37.74 ± 0.22 | 47.65 ± 0.19 | 58.46 ± 0.19 | –
9 | COc1cc(O)c(C(=O)/C=C/c2ccc(CN3CCC(OC)CC3)cc2)cc1CN1CCOCC1 [6p, (E)-1-(2-hydroxy-4-methoxy-5-(morpholinomethyl)phenyl)-3-(4-((4-methoxypiperidin-1-yl)methyl)phenyl)prop-2-en-1-one] | 79.9 ± 2.4 | 66.04 ± 0.49 | 85.4 ± 3.92 | –
10 | COc1cccc2c1C(=O)c1c(O)c3c(c(O)c1C2=O)C[C@@](O)(C(=O)CO)C[C@@H]3O[C@H]1C[C@H](N)[C@H](O)[C@H](C)O1 [Doxorubicin] | – | – | – | IC50 (HeLa cells; [2]): 10.6 ± 0.5 µM; RI (resistance index) (HeLa/DDP cells): 3.93; IC50 (HeLa/DDP cells; Homo sapiens): 41.6 ± 2.05 µM
11 | COc1cc(O)c(C(=O)/C=C/c2ccc(CN3CCC(OC)CC3)cc2)cc1CN1CCC(O)CC1 [6b, (E)-1-(2-hydroxy-5-((4-hydroxypiperidin-1-yl)methyl)-4-methoxyphenyl)-3-(4-((4-methoxypiperidin-1-yl)methyl)phenyl)prop-2-en-1-one] | 40.13 ± 0.11 | 57.1 ± 1.3 | 82.5 ± 5.21 | –
12 | COc1cc(O)c(C(=O)/C=C/c2ccc(CN3CCCC3)cc2)cc1CN1CCC(C)CC1 [6s, (E)-1-(2-hydroxy-4-methoxy-5-((4-methylpiperidin-1-yl)methyl)phenyl)-3-(4-(pyrrolidin-1-ylmethyl)phenyl)prop-2-en-1-one] | 30.9 ± 0.39 | 36.1 ± 1.71 | 35.4 ± 0.61 | –
13 | COc1cc(O)c(C(=O)/C=C/c2ccc(CN3CCC(C)CC3)cc2)cc1CN1CCC(OC)CC1 [6g, (E)-1-(2-hydroxy-4-methoxy-5-((4-methoxypiperidin-1-yl)methyl)phenyl)-3-(4-((4-methylpiperidin-1-yl)methyl)phenyl)prop-2-en-1-one] | 47.05 ± 0.11 | 85.04 ± 0.47 | 72.9 ± 1.08 | –
14 | COc1cc(O)c(C(=O)/C=C/c2ccc(CN3CCC(C)CC3)cc2)cc1CN1CCC(C)CC1 [6r, (E)-1-(2-hydroxy-4-methoxy-5-((4-methylpiperidin-1-yl)methyl)phenyl)-3-(4-((4-methylpiperidin-1-yl)methyl)phenyl)prop-2-en-1-one] | 25.5 ± 1.21 | 36.6 ± 1.94 | 42.2 ± 0.8 | –
15 | COc1cc(O)c(C(=O)/C=C/c2ccc(CN3CCC(C)CC3)cc2)cc1CN1CCN(C)CC1 [6u, (E)-1-(2-hydroxy-4-methoxy-5-((4-methylpiperazin-1-yl)methyl)phenyl)-3-(4-((4-methylpiperidin-1-yl)methyl)phenyl)prop-2-en-1-one] | 28.01 ± 0.14 | 28.2 ± 0.5 | 42.5 ± 0.85 | –
16 | COc1cc(O)c(C(=O)/C=C/c2ccc(CN3CCOCC3)cc2)cc1CN1CCC(O)CC1 [6e, (E)-1-(2-hydroxy-5-((4-hydroxypiperidin-1-yl)methyl)-4-methoxyphenyl)-3-(4-(morpholinomethyl)phenyl)prop-2-en-1-one] | 56.7 ± 0.59 | > 100 | 75.69 ± 0.49 | –
17 | COc1cc(O)c(C(=O)/C=C/c2ccc(CN3CCN(C)CC3)cc2)cc1CN1CCC(C)CC1 [6t, (E)-1-(2-hydroxy-4-methoxy-5-((4-methylpiperidin-1-yl)methyl)phenyl)-3-(4-((4-methylpiperazin-1-yl)methyl)phenyl)prop-2-en-1-one] | 30.9 ± 0.18 | 36 ± 6.3 | 42.11 ± 0.31 | –
18 | COc1cc(O)c(C(=O)/C=C/c2ccc(CN3CCC(O)CC3)cc2)cc1CN1CCCC1 [6i, (E)-1-(2-hydroxy-4-methoxy-5-(pyrrolidin-1-ylmethyl)phenyl)-3-(4-((4-hydroxypiperidin-1-yl)methyl)phenyl)prop-2-en-1-one] | 46.15 ± 0.35 | 77.02 ± 0.22 | 71.64 ± 0.48 | –
19 | COc1cc(O)c(C(=O)/C=C/c2ccc(CN3CCOCC3)cc2)cc1CN1CCOCC1 [6n, (E)-1-(2-hydroxy-4-methoxy-5-(morpholinomethyl)phenyl)-3-(4-(morpholinomethyl)phenyl)prop-2-en-1-one] | > 100 | > 100 | > 100 | –
20 | N.N.[Cl][Pt][Cl] [Cisplatin, reference compound] | – | – | – | IC50 (HeLa cells; MTT, mean ± SD, read-out: 48h IC50 HeLa): 13.6 ± 1.63 µM; IC50 (HeLa cells; single agent, read-out: 48h IC50 HeLa (Table 4)): 13.6 ± 1.63 µM; RI (resistance index) (HeLa/DDP cells): 7.36; IC50 (HeLa/DDP cells): 100 ± 7.94 µM; IC50 (SiHa cells): 21.6 ± 2.9 µM; IC50 (H8 cells): 24.8 ± 1.37 µM
21 | COc1cc(O)c(C(=O)/C=C/c2ccc(CN3CCOCC3)cc2)cc1CN1CCC(C)CC1 [6q, (E)-1-(2-hydroxy-4-methoxy-5-((4-methylpiperidin-1-yl)methyl)phenyl)-3-(4-(morpholinomethyl)phenyl)prop-2-en-1-one] | 88.17 ± 0.72 | > 100 | > 100 | –

— article PMC10254235, “Design, Synthesis, and Anti-Cervical Cancer and Reversal of Tumor Multidrug Resistance Activity of Novel Nitrogen-Containing Heterocyclic Chalcone Derivatives” (Molecules, 2023)
